Test [1] has as its system Obese patients (BMI≧30). Nature of the test: Weight loss in obese patients given bupropion without food component or dietary intervention (Example 2, comparative). It is filed as in vivo, human. The note with it: 300 mg bupropion (150 mg twice a day), no food component nor dietary counseling. As to the method: Example 2 (Comparative): An analysis was conducted of obese patients (BMI≧30) who were given 300 mg of bupropion (150 mg twice a day) in the absence of the food component of the invention nor any other dietary counseling or intervention. Weight loss was negligible, the average weight loss per patient in the 300 mg study was 2.4 Kg after 12 months.

The test system of test [2] is Obese patients (BMI≧30). Nature of the test: Weight loss in obese patients given bupropion plus low calorie nutritional beverage (Example 3, invention). The format is in vivo, human. The note with it: 600 Kcal deficit diet, end of 6 months. The method, then:
Example 3 (Invention): Obese patients (BMI≧30) were given 300 mg (N=110) or 400 mg (N=105) of bupropion and a low calorie, nutritional beverage (Slim Fast™, 11.5 oz.) for two meals per day for 6 months to achieve a 600 Kcal deficit diet. That is, each patient was given 150 or 200 mg of bupropion HCL sustained release, respectively, in a nutritional beverage (a food component of the invention) twice a day. At the end of the end of 6 months, the average weight loss was 7.2 kg and 10.1 kg for the 300 mg and 400 mg groups, respectively.

Structures can show the parent of a compound that is named as a salt.

These results are taken from patent US20050031670A1, “Weight reduction or weight controlling composition” (priority 2001, published 2005).

As to `CC(NC(C)(C)C)C(=O)c1cccc(Cl)c1` (racemic) [bupropion, (±)-1-(3-chlorophenyl)-2-[(1,1-dimethyl)amino]-1-propanone hydrochloride], in test [1], the “Weight loss (in words)” value was “negligible”. The “average weight loss per patient” value in test [1] (after 12 months) worked out at 2.4 kg.
Consider `CC(NC(C)(C)C)C(=O)c1cccc(Cl)c1` (single isomer, unassigned; (+)) [bupropion HCL sustained release, (+)-2-(tert-butylamino)-3′-chloropropiophenome hydrochloride], for which the average weight loss is 7.2 kg in test [2] (300 mg group (150 mg twice a day) in Slim Fast 11.5 oz for two meals per day) and 10.1 kg in test [2] (400 mg group (200 mg twice a day) in Slim Fast 11.5 oz for two meals per day).
